Experimental data: patent US7868135B2, “Compositions of lipopeptide antibiotic derivatives and methods of use thereof” (priority 2003, dated 2011)
Starred links: 1 amine or outer side, 2 acyl side, 3 side chain; linkers in the order of their positions; H or OH if unused. Positions of bridges follow the written chain, without caps; N, C: chain ends. Non-standard residues stand in square brackets, D forms with d. Residues, ends and D or L forms follow the SMILES beside them. ξ: configuration not given here. *: point of attachment. ξAbu(3ξ-NHCOCH2NH2) = CC(NC(=O)CN)C(N)C(=O)O; ξAbu(βξ-NH2) = CC(N[*:3])C(N[*:1])C(=O)[*:2]; Phac(3-amino) = O=C(Cc1cccc(N[*:1])c1)[*:2]; X4 = CNCC(=O)NC(C)C(N[*:1])C(=O)[*:2]; Pentadecanoyl = CCCCCCCCCCCCCCC(=O)*; ξAsp(βξ-Me) = CC(C(=O)O)C(N)C(=O)O; ξAbu(3ξ-NH2) = CC(N)C(N)C(=O)O; X9 = O=C(c1ccccc1Cc1ccccc1)*; Lauroyl = CCCCCCCCCCCC(=O)*; 12Ado = NCCCCCCCCCCCC(=O)O; X19 = CCCCCCCCCCS(=O)(=O)*; Pip = O=C(O)[CH]1CCCCN1; ξD = NC(CC(=O)O)C(=O)O; ξPip = O=C(O)C1CCCCN1; ξV = CC(C)C(N)C(=O)O; ξP = O=C(O)C1CCCN1

The molecules below were run on Staphylococcus aureus (MSSA). Conditions: 24 h.
Outline: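 Broth microdilution MIC per NCCLS M7-A6 with doubling serial dilutions, in cation-adjusted Mueller-Hinton broth supplemented with 0.625 mM calcium.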
Work on CCCCCCCCCCCCCCC(=O)N[C@H](Cc1ccccc1)C(=O)NC(CC(=O)O)C(=O)NC1C(=O)N2CCCCC2C(=O)NC(C(C)C(=O)O)C(=O)NC(CC(=O)O)C(=O)NCC(=O)NC(CC(=O)O)C(=O)NCC(=O)NC(C(C)N)C(=O)NC(C(C)C)C(=O)N2CCCC2C(=O)NC1C (stereo partly drawn) [Compound 116, C15-(D-Phe)-Amphomycin] (Pentadecanoyl-[dF][ξD][ξAbu(βξ-NH2)][ξPip][ξAsp(βξ-Me)][ξD]G[ξD]G[ξAbu(3ξ-NH2)][ξV][ξP]; lactam 3-C) yielded an MIC of 1 µg/mL. With CC(=O)NCCCCCCCCCCCC(=O)NC(CC(=O)O)C(=O)NC1C(=O)N2CCCCC2C(=O)NC(C(C)C(=O)O)C(=O)NC(CC(=O)O)C(=O)NCC(=O)NC(CC(=O)O)C(=O)NCC(=O)NC(C(C)N)C(=O)NC(C(C)C)C(=O)N2CCCC2C(=O)NC1C (stereo not drawn) [Compound 374, (12-Acetylaminododecanoyl)-Amphomycin] (Ac-[12Ado]D[ξAbu(βξ-NH2)][Pip][ξAsp(βξ-Me)]DGDG[ξAbu(3ξ-NH2)]VP; lactam 3-C; configuration not given here; N-terminus assumed) the MIC was greater than 64 µg/mL. CCCCCCCCCCS(=O)(=O)NCC(=O)NC(CC(=O)O)C(=O)NC1C(=O)N2CCCCC2C(=O)NC(C(C)C(=O)O)C(=O)NC(CC(=O)O)C(=O)NCC(=O)NC(CC(=O)O)C(=O)NCC(=O)NC(C(C)NC(=O)CN)C(=O)NC(C(C)C)C(=O)N2CCCC2C(=O)NC1C (stereo not drawn) [Compound 102, CH3—(CH2)9—SO2-Gly-Amphomycin-9-Gly] (X19-GD[ξAbu(βξ-NH2)][Pip][ξAsp(βξ-Me)]DGDG[ξAbu(3ξ-NHCOCH2NH2)]VP; lactam 3-C; configuration not given here) gave an MIC of 8 µg/mL. Molecule CCCCCCCCCCCCCCC(=O)NC(CC(=O)O)C(=O)NC1C(=O)N2CCCCC2C(=O)NC(C(C)C(=O)O)C(=O)NC(CC(=O)O)C(=O)NCC(=O)NC(CC(=O)O)C(=O)NCC(=O)NC(C(C)NC(=O)CNC(=O)[C@H](CCCCN)NC(=O)CN)C(=O)NC(C(C)C)C(=O)N2CCCC2C(=O)NC1C (stereo partly drawn) [Compound 190, C15-Amphomycin-9-Gly-Lys-Gly] has an MIC of 1 µg/mL. Work on CCCCCCCCCCCCCCC(=O)NC(CC(=O)O)C(=O)NC1C(=O)N2CCCCC2C(=O)NC(C(C)C(=O)O)C(=O)NC(CC(=O)O)C(=O)NCC(=O)NC(CC(=O)O)C(=O)NCC(=O)NC(C(C)NC(=O)[C@@H](N)CC(C)C)C(=O)NC(C(C)C)C(=O)N2CCCC2C(=O)NC1C (some centres unmarked) [Compound 5, C15-Amphomycin-9-Leu] yielded an MIC of 16 to 32 µg/mL. Work on CCCCCCCCCCCCCCC(=O)N[C@H](C(=O)NC(CC(=O)O)C(=O)NC1C(=O)N2CCCCC2C(=O)NC(C(C)C(=O)O)C(=O)NC(CC(=O)O)C(=O)NCC(=O)NC(CC(=O)O)C(=O)NCC(=O)NC(C(C)N)C(=O)NC(C(C)C)C(=O)N2CCCC2C(=O)NC1C)c1ccccc1 (some centres unmarked) [Compound 115, C15-Phg-Amphomycin] yielded an MIC of 2 µg/mL. CCCCCCCCCCCC(=O)Nc1cccc(CC(=O)NC(CC(=O)O)C(=O)NC2C(=O)N3CCCCC3C(=O)NC(C(C)C(=O)O)C(=O)NC(CC(=O)O)C(=O)NCC(=O)NC(CC(=O)O)C(=O)NCC(=O)NC(C(C)N)C(=O)NC(C(C)C)C(=O)N3CCCC3C(=O)NC2C)c1 (stereo not drawn) [Compound 111, C12-(M-Apa)-Amphomycin] (Lauroyl-[Phac(3-amino)]D[ξAbu(βξ-NH2)][Pip][ξAsp(βξ-Me)]DGDG[ξAbu(3ξ-NH2)]VP; lactam 3-C; configuration not given here) was tested, and the MIC was 0.5 to 1 µg/mL. In the case of CCCCCCCCCCCCCCC(=O)NC(CC(=O)O)C(=O)NC1C(=O)N2CCCCC2C(=O)NC(C(C)C(=O)O)C(=O)NC(CC(=O)O)C(=O)NCC(=O)NC(CC(=O)O)C(=O)NCC(=O)NC(C(C)NC(=O)CCCCCNC(=O)CN)C(=O)NC(C(C)C)C(=O)N2CCCC2C(=O)NC1C (centres unmarked) [Compound 93, C15-Amphomycin-9-Ahx-Gly], the MIC is reported as 4 µg/mL. CNCC(=O)NC(C)C1NC(=O)CNC(=O)C(CC(=O)O)NC(=O)CNC(=O)C(CC(=O)O)NC(=O)C(C(C)C(=O)O)NC(=O)C2CCCCN2C(=O)C(NC(=O)C(N)CC(=O)O)C(C)NC(=O)C2CCCN2C(=O)C(C(C)C)NC1=O (stereo not drawn) [Compound 356, Amphomycin-9-Sar] (H-D[ξAbu(βξ-NH2)][Pip][ξAsp(βξ-Me)]DGDG[X4]VP; lactam 2-C; configuration not given here) gave an MIC greater than 64 µg/mL. With CCCCCCCCCCCCCCC(=O)NC(CC(=O)O)C(=O)NC1C(=O)N2CCCCC2C(=O)NC(C(C)C(=O)O)C(=O)NC(CC(=O)O)C(=O)NCC(=O)NC(CC(=O)O)C(=O)NCC(=O)NC(C(C)NC(=O)CNC(=O)CN)C(=O)NC(C(C)C)C(=O)N2CCCC2C(=O)NC1C (centres unmarked) [Compound 42, C15-Amphomycin-9-Gly-Gly] the MIC was 1 µg/mL. CCCCCCCCCCCCCCC(=O)NC(CC(=O)O)C(=O)NC1C(=O)N2CCCCC2C(=O)NC(C(C)C(=O)O)C(=O)NC(CC(=O)O)C(=O)NCC(=O)NC(CC(=O)O)C(=O)NCC(=O)NC(C(C)NC(=O)[C@@H](C)N)C(=O)NC(C(C)C)C(=O)N2CCCC2C(=O)NC1C (stereo partly drawn) [Compound 66, C15-Amphomycin-9-(D-Ala)] showed an MIC of 4 µg/mL. Molecule CCCCCCCCCCCCCCC(=O)NC(CC(=O)O)C(=O)NC1C(=O)N2CCCCC2C(=O)NC(C(C)C(=O)O)C(=O)NC(CC(=O)O)C(=O)NCC(=O)NC(CC(=O)O)C(=O)NCC(=O)NC(C(C)NC(=O)CCCNC(=O)CCCN)C(=O)NC(C(C)C)C(=O)N2CCCC2C(=O)NC1C (centres unmarked) [Compound 94, C15-Amphomycin-9-GABA-GABA] has an MIC of 2 µg/mL. CCCCCCCCNC(=O)NCCC(=O)NC(CC(=O)O)C(=O)NC1C(=O)N2CCCCC2C(=O)NC(C(C)C(=O)O)C(=O)NC(CC(=O)O)C(=O)NCC(=O)NC(CC(=O)O)C(=O)NCC(=O)NC(C(C)N)C(=O)NC(C(C)C)C(=O)N2CCCC2C(=O)NC1C (stereo not drawn) [Compound 321, CH3—(CH2)7—NH—C(═O)-(β-Ala)-Amphomycin] was tested, and the MIC was greater than 64 µg/mL. With CCCCCCCCCCCCCCC(=O)NC(CC(=O)O)C(=O)NC1C(=O)N2CCCCC2C(=O)NC(C(C)C(=O)O)C(=O)NC(CC(=O)O)C(=O)NCC(=O)NC(CC(=O)O)C(=O)NCC(=O)NC(C(C)NC(=O)CNC(=O)[C@@H](N)C(C)C)C(=O)NC(C(C)C)C(=O)N2CCCC2C(=O)NC1C (some centres unmarked) [Compound 37, C15-Amphomycin-9-Gly-Val] the MIC was 2 to 4 µg/mL. In the case of CC(C)C1NC(=O)C(C(C)N)NC(=O)CNC(=O)C(CC(=O)O)NC(=O)CNC(=O)C(CC(=O)O)NC(=O)C(C(C)C(=O)O)NC(=O)C2CCCCN2C(=O)C(NC(=O)C(CC(=O)O)NC(=O)c2ccccc2Cc2ccccc2)C(C)NC(=O)C2CCCN2C1=O (stereo not drawn) [Compound 323, (2-(Phenylmethyl)-Benzoyl)-Amphomycin] (X9-D[ξAbu(βξ-NH2)][Pip][ξAsp(βξ-Me)]DGDG[ξAbu(3ξ-NH2)]VP; lactam 2-C; configuration not given here), the MIC is reported as greater than 64 µg/mL. CCCCCCCCCCCCCCC(=O)NC(CC(=O)O)C(=O)NC1C(=O)N2CCCCC2C(=O)NC(C(C)C(=O)O)C(=O)NC(CC(=O)O)C(=O)NCC(=O)NC(CC(=O)O)C(=O)NCC(=O)NC(C(C)NC(=O)[C@H](C)N)C(=O)NC(C(C)C)C(=O)N2CCCC2C(=O)NC1C (some centres unmarked) [Compound 82, C15-Amphomycin-9-Ala] gave an MIC of 2 µg/mL.

Same assay, conditions: S. aureus (MSSA), CAMHB supplemented with 0.625 mM calcium, 24 hours at about 37° C.; a range = compound tested multiple times
For CCCCCCCCCCCCCCCCC(=O)NC(CC(=O)O)C(=O)NC1C(=O)N2CCCCC2C(=O)NC(C(C)C(=O)O)C(=O)NC(CC(=O)O)C(=O)NCC(=O)NC(CC(=O)O)C(=O)NCC(=O)NC(C(C)NC(=O)CNC)C(=O)NC(C(C)C)C(=O)N2CCCC2C(=O)NC1C (centres unmarked) [Compound 78, C17-Amphomycin-9-Sar], the MIC was 78/1 μg/mL.
